Experiment: cytotoxicity
Type: cell-based

NC(=O)c1ncn([C@@H]2O[C@H](CO)[C@@H](O)[C@H]2O)n1 [Ribavirin]
CC50: > 100 µM

CC1=CC[C@@H]2[C@]34CC[C@](O)(OC3)C(C)(C)[C@@H]4CC[C@@]2(C)[C@@]12Oc1cc(-c3cccnc3)oc(=O)c1[C@@H]2O [Compound 8, decaturin B]
CC50: > 100 µM
